Source: US20250188082A1, “Use of Hypoxanthine Compound In Preparation of Drug For Treating Pulmonary Fibrosis” (Sichuan Yiasuo Pharmaceutical Technology Co., Ltd., priority 2022, published 2025)

Assays:
Assay type in all cases: in vivo, C57BL/6 mice
[1] = tested on: coronavirus-induced pulmonary fibrosis model (HcoV-OC43); test: Coronavirus-induced pulmonary fibrosis model; conditions: 120 mg/kg/d intragastric, 14 days
Summary of the method: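 C57BL/6 mice (22–25 g, 9 per group) were infected intranasally with HcoV-OC43 on day 1, then given intratracheal bleomycin 5 mg/kg on day 2. Two weeks later, compounds were given intragastrically at 120 mg/kg/d for 14 days. Endpoints: weight, deaths, serum NF-κB, TNF-α, IL-1 and IL-6, lung HE and Ashcroft scoring.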

[2] = tested on: mycoplasma-induced pulmonary fibrosis model (MPFH strain); test: Mycoplasma-induced pulmonary fibrosis model; conditions: 120 mg/kg/d intragastric, 14 days
[3] = tested on: bleomycin-induced pulmonary fibrosis model; test: Advanced pulmonary fibrosis: bleomycin-induced model, dosing from three weeks after modelling
[4] = tested on: bleomycin-induced pulmonary fibrosis model; test: Early pulmonary fibrosis: bleomycin-induced model, dosing from one week after modelling
[5] = tested on: influenza B virus-induced pulmonary fibrosis model (influenza B (H7N9) virus); conditions: 120 mg/kg/d intragastric, 14 days
[6] = tested on: Streptococcus pneumoniae-induced pulmonary fibrosis model; test: Streptococcus pneumoniae-induced pulmonary fibrosis model
[7] = serum, HcoV-OC43 + bleomycin, from two weeks after model
[8] = MPFH mycoplasma + bleomycin, once a day, from two weeks after model
[9] = advanced pulmonary fibrosis, blood, Day 15, 120 mg/kg/d intragastric, twice every day, 14 days, from three weeks after model
[10] = early pulmonary fibrosis, blood, Day 15, 120 mg/kg/d intragastric, twice every day, 14 days, from one week after model
[11] = serum, influenza B (H7N9) + bleomycin, from two weeks after model
[12] = Streptococcus pneumoniae + bleomycin, blood, Day 15, 120 mg/kg/d intragastric, 3 times every day, 14 days, from one week after model

For `COC(=O)c1ccc2c(c1)NC(=O)/C2=C(\Nc1ccc(N(C)C(=O)CN2CCN(C)CC2)cc1)c1ccccc1` [Nintedanib, reference compound], the Ashcroft scores ([1]; coronavirus HcoV-OC43 + bleomycin, lung tissue HE) was 4.11, the IL-1β [1, 7] was 525.3 pg/mL and the IL-6 [1, 7] was 421.5 pg/mL. For the same compound, the NF-κB [1, 7] was 521.3 pg/mL, the TNF-α [1, 7] was 411.3 pg/mL and the Leucocyte [2, 8] was 122.15 10^9/L. The Lymphocyte [2, 8] was 565.69 10^9/L, the Neutrophil [2, 8] was 232.24 10^9/L and the Ashcroft scores ([2]; mycoplasma + bleomycin, lung tissue HE) was 5.45. The Leucocyte [3, 9] was 46.09 10^9/L, the Lymphocyte [3, 9] was 50.03 10^9/L and the Neutrophil [3, 9] was 40.99 10^9/L. For the same compound, the Ashcroft scores ([3]; advanced pulmonary fibrosis, lung tissue HE staining, 120 mg/kg/d intragastric, 14 days, from three weeks after model) was 4.13, the “inhibition (anti-inflammatory) effect on leucocytes, neutrophils and lymphocytes in blood” value (“inhibition (anti-inflammatory) effect” for short) ([3]; mice with advanced pulmonary fibrosis, result in words) was “obviously inferior” and the Leucocyte [4, 10] was 33.76 10^9/L. The Lymphocyte [4, 10] was 33.87 10^9/L, the Neutrophil [4, 10] was 31.32 10^9/L and the Ashcroft scores ([4]; early pulmonary fibrosis, lung tissue HE staining, 120 mg/kg/d intragastric, 14 days, from one week after model) was 3.69. For the same compound, the “inhibition (anti-inflammatory) effect” value ([4]; mice with early pulmonary fibrosis, result in words) was “obviously inferior”, the Ashcroft scores ([5]; influenza B virus + bleomycin, lung tissue HE) was 4.08 and the IL-1β [5, 11] was 166.3 pg/mL. It also gave an NF-κB [5, 11] of 529.7 pg/mL, a TNF-α [5, 11] of 141.3 pg/mL and an IL-6 ([5]; serum, influenza B + bleomycin, from two weeks after model) of 176.1 pg/mL. The Leucocyte [6, 12] was 98.31 10^9/L, the Lymphocyte [6, 12] was 87.43 10^9/L and the Neutrophil [6, 12] was 78.94 10^9/L. The Ashcroft scores ([6]; Streptococcus pneumoniae + bleomycin, lung tissue HE staining, 120 mg/kg/d intragastric, 14 days) was 4.55 and the “inhibition (anti-inflammatory) effect” value ([6]; mice with Streptococcus pneumoniae-induced pulmonary fibrosis, result in words) was “obviously inferior”.
